Experimental data as given in PubChem BioAssay AID1902 (Broad Institute, 2009).
Calls of active or inactive are those of the source.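 Rule for the calls: active = EC50 no more than a set limit of log units above the highest dose; inactive = the rest.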

target: S. pyogenes SKKanGAS, kanamycin survival, BacTiterGlo, 6 h; experiment: S. pyogenes SKKanGAS kanamycin growth inhibitors – SKKanGAS strain, luminescence, dose confirmation, streptokinase promoter inhibitor project, dose response (AID 1902);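 note: lower survival reflects blocked streptokinase promoter driving kanamycin resistance gene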

Point of comparison: `Cc1ccc(C)c(N2CCN(C(=O)CCCCCn3c(=S)[nH]c4ccc(N5CCOCC5)cc4c3=O)CC2)c1`, EC50 7930 nM. Against it:
- CC(C)S(=O)(=O)c1csc(NC(=O)Nc2cc(Cl)ccc2Cl)c1Cl — 4.8-fold lower, 1650 nM
- CS(=O)(=O)Nc1ccc(C2=NN(C(=O)C3CCCCC3)C(c3cccs3)C2)cc1 (stereo not given) — 2-fold lower, 3940 nM
- NC(=O)NC(=O)CSc1nc2sc(-c3ccccc3)cc2c(=O)n1-c1ccccc1 — 6.7-fold lower, 1180 nM
- S=C(NCc1cccs1)Nc1cc(Cl)cc(Cl)c1 — within 1.5-fold, 7180 nM
- O=C(Nc1cccc(Cl)c1N1CCCC1)c1ccc(Br)o1 — within 1.5-fold, 5820 nM
- FC(F)(F)c1nc(N2CCN(c3ccccc3)CC2)nc2c1CCCCC2 — 2.9-fold lower, 2770 nM
- CCCCCCCC(=O)NNC(=O)c1c(O)c2ccccc2n(CC)c1=O — 6.1-fold lower, 1300 nM
- Cc1cc2c(cc1C)CSC(c1c(O)ccc3ccccc13)SC2 — 3.8-fold lower, 2080 nM
- CN1CCN(C2=Cc3cc(Cl)ccc3Sc3cc(F)ccc32)CC1 — 1.5-fold lower, 5160 nM
- Cc1ccc(Cc2cnc(N3C(=N)SC(c4ccccc4)C3=O)s2)cc1 (stereo not given) — 76-fold lower, 105 nM
- CCN(CC)c1nc(C(F)(F)F)nc2c1nnn2Cc1ccccc1 — 2.2-fold lower, 3620 nM
- Brc1ccc2[nH]c3c(N4CCc5ccccc5C4)ncnc3c2c1 — within 1.5-fold, 6220 nM
- Cc1ccc(C2CC(c3cccs3)=NN2C(=O)c2ccc(Br)o2)cc1 (stereo not given) — 4.1-fold lower, 1940 nM
- S=c1[nH]nc(C2CCCCC2)n1/N=C/c1cccc(Cl)c1Cl — within 1.5-fold, 5590 nM
- Cc1ccccc1Nc1nc(N)nc(CN(C)Cc2ccccc2Cl)n1 — 4.5-fold lower, 1760 nM
- COc1cc(C)c(C(=O)CC(=O)c2c(C)cc(OC)cc2C)c(C)c1 — 4.9-fold lower, 1610 nM
- COc1ccc2c(c1)C(=NNc1ccc(C(=O)O)cc1)c1cc(OC)ccc1-2 — 1.7-fold lower, 4680 nM
- Cc1ccc(-c2csc(-c3c[nH]c4ccccc34)n2)c(C)c1 — within 1.5-fold, 6030 nM
- COc1ccc(-c2cc3nc[nH]c(=O)c3s2)cc1 — within 1.5-fold, 8360 nM
- CSc1cccc(NC(=O)OC2CCCCCCCCCCC2)c1 — 1.9-fold lower, 4100 nM
- CCc1nc(SCC(=O)N2c3ccccc3CC2C)c2c(C)c(C)sc2n1 (stereo not given) — within 1.5-fold, 8610 nM
- Cc1cccc2[nH]c3c(N4CC=C(c5ccc(F)cc5)CC4)ncnc3c12 — 3.7-fold lower, 2140 nM
- CCc1ccc(/C=C2\SC(=S)N(CCCC(=O)Nc3ccc(C(=O)O)cc3)C2=O)cc1 — within 1.5-fold, 7830 nM
- Oc1ccccc1N=Cc1c(O)ccc2oc3c(c12)CCCC3 — within 1.5-fold, 5520 nM
- Cc1c(Cl)cnn1CC(=O)NC1C(=O)N2C(C(=O)O)=C(CSc3nnnn3C)CSC12 (stereo not given) — lower, < 60 nM
- CCCCC/C=C\C/C=C\C/C=C\C/C=C\CCCC(=O)Nc1ccc(O)cc1 — 6.6-fold lower, 1200 nM
- CN1C(=O)/C(=C/c2ccccc2F)Sc2ccc(C(=O)NCC3CCCO3)cc21 (stereo not given) — 5.2-fold lower, 1530 nM
- Cc1nn(C(C)C(=O)NC2C(=O)N3C(C(=O)O)=C(CSc4nnnn4C)CSC23)cc1Cl (stereo not given) — lower, < 60 nM
- C[C@]12CCC(O)CC1CCC1C2CC[C@]2(C)C(c3cc(C(F)(F)F)n[nH]3)CCC12 (stereo not given in full) — 4.2-fold lower, 1900 nM
- Cc1cccc(Nc2nc(N)nc(CN3CCN(c4ccc(F)cc4)CC3)n2)c1 — 2-fold higher, 15600 nM
- CN=C(Nc1cc(Cl)ccc1Cl)SC1CC(=O)N(c2ccc(C(=O)OC)cc2)C1=O (stereo not given) — within 1.5-fold, 7400 nM
- O=[N+]([O-])c1ccc(O)c(-c2cc(C(F)(F)F)nc(-c3ccccc3)n2)c1 — 39-fold lower, 205 nM
- CCOC(=O)c1c(C)oc2c1c(C(c1ccccc1)N1CCOCC1)c(O)c1ccccc12 (stereo not given) — 3-fold lower, 2660 nM
- CC(C)Cn1c(O)c(N=NC(=O)c2cccc(S(=O)(=O)N3CCCCC3)c2)c2ccccc21 — within 1.5-fold, 6040 nM
- COc1cc2nc(=S)n3[nH]c(COc4ccccc4C)nc3c2cc1OC — 3.5-fold lower, 2280 nM
- Cc1nn(-c2ccccc2)c(Cl)c1C1C(C#N)=C(N)Oc2c1c(=O)oc1ccccc21 (stereo not given) — 71-fold lower, 112 nM
- Cc1cc(C)n(-c2nc(NC(C)(C)C)nc(NC(C)(C)C)n2)n1 — 20-fold lower, 396 nM
- CCc1ccc2nc(N3C(=O)C(O)=C(C(=O)c4ccco4)C3c3cccs3)sc2c1 (stereo not given) — 4.2-fold lower, 1880 nM
- O=C(N/N=C/c1cc(Cl)cc([N+](=O)[O-])c1O)C(O)(c1ccccc1)c1ccccc1 — 2.3-fold lower, 3380 nM
- O=C(NC(=S)N(Cc1ccccc1)Cc1ccccc1)c1ccccc1F — 11-fold lower, 752 nM
- COc1ccc(C(Nc2cc(C)ccn2)c2ccc3ccc(C)nc3c2O)cc1 (stereo not given) — 1.6-fold higher, 12500 nM
- Oc1nc(Nc2ccccc2)sc1/C=C1\C=Nc2ccccc21 — within 1.5-fold, 9160 nM
- O=C(N/N=C/c1sc2ccccc2c1O)c1cccc2ccccc12 — 3.1-fold lower, 2520 nM
- Cc1ccc(-c2nn(-c3ccccc3)cc2/C=N/NC(=O)CSc2nnc(C)n2-c2ccccc2)cc1 — within 1.5-fold, 9840 nM
- CS(=O)(=O)c1ccc2nc(NC(=O)c3ccc(NS(=O)(=O)c4cccc([N+](=O)[O-])c4)cc3)sc2c1 — 4.8-fold lower, 1640 nM
- COc1cnc(-c2ccccn2)nc1N(C)c1ccccc1 — within 1.5-fold, 6800 nM
- COc1ccccc1C(=O)NNC(=S)NC(=O)c1sc2ccccc2c1Cl — lower, < 60 nM
- CC1CCN(C(=O)N2c3ccccc3Sc3ccccc32)CC1 — within 1.5-fold, 9990 nM
- Cc1cc(N2C(=O)C(O)=C(C(=O)c3cc4ccccc4o3)C2c2cccc(Cl)c2)no1 (stereo not given) — 6-fold lower, 1330 nM
- CC12CCC(C(=O)N(CSC(=S)N/N=C\c3ccccc3O)C1=O)C2(C)C (stereo not given) — 3.1-fold lower, 2550 nM
- Cc1cccc2nc(COc3ccc4ccccc4c3Br)cn12 — 1.6-fold lower, 4940 nM
- COc1ccc(/C=C2\Sc3ccc(C(=O)N4CCCC4)cc3N(C)C2=O)cc1OC — 15-fold lower, 515 nM
- COc1cccc(-c2nn(C)c3sc(C(=O)Nc4ccc5c(c4)OCCO5)cc23)c1 — 2.2-fold lower, 3650 nM
- CCOC(=O)c1c(N)sc(C(O)(C(F)(F)F)C(F)(F)F)c1-c1ccc(Cl)cc1 — 2.5-fold lower, 3170 nM
- Cc1cc(C)cc(C(=O)NC2C(=O)N3C(C(=O)O)=C(CSc4nnc(C)s4)CSC23)c1 (stereo not given) — 21-fold lower, 380 nM
- OC(c1ccc(OCc2ccccc2)cc1)c1nnc(-c2ccccc2)o1 (stereo not given) — 1.7-fold higher, 13400 nM
- COc1cccc(N=Nc2c(N)[nH]n3c(=O)cc(-c4ccccc4)nc23)c1 — 4.5-fold lower, 1780 nM
- Cc1oc2c(c1C(=O)NCc1cccnc1)C(=O)c1ccccc1C2=O — 9-fold lower, 882 nM
- CNC(CC(C)C)C(=O)NC1C(=O)NC(CC(N)=O)C(=O)NC2C(=O)NC3C(=O)NC(C(=O)NC(C(=O)O)c4cc(O)cc(O)c4-c4cc3ccc4O)C(O)c3ccc(c(Cl)c3)Oc3cc2cc(c3OC2OC(CO)C(O)C(O)C2OC2CC(C)(N)C(O)C(C)O2)Oc2ccc(cc2Cl)C1O (stereo not given) — 47-fold lower, 169 nM
- Cc1nnc(NC(=O)c2ccc(S(=O)(=O)N(C)Cc3ccccc3)cc2)o1 — 1.7-fold lower, 4710 nM
- CCOC(=O)C1=C(C)NC2=C(C(=O)c3ccccc32)C1c1ccc([N+](=O)[O-])o1 (stereo not given) — 1.6-fold higher, 12800 nM
- CCCC(O)(c1ccc(Br)cc1)C(CN1CCOCC1)c1ccc(Cl)cc1 (stereo not given) — within 1.5-fold, 10100 nM
- Cc1cc(C(=O)N/N=C/c2cc(N=Nc3ccccc3)ccc2O)n[nH]1 — 3.9-fold lower, 2020 nM
- CC(C)(O)c1[nH]c2cc(F)ccc2c1C(C)(C)O — 4.7-fold lower, 1670 nM
- Cc1cc(Nc2ccccc2)n(-c2nc3ccccc3[nH]2)n1 — 3.8-fold lower, 2100 nM
- O=C(O)C(c1ccccc1)N1C(=O)/C(=C\c2ccc(-c3cccc(Cl)c3)o2)SC1=S (stereo not given) — 4.1-fold lower, 1940 nM
- CC(C)=CCC12Oc3cc(O)ccc3C1(O)Oc1cc(O)c([C@H]3C=C(C)CC(c4ccc(O)cc4O)[C@H]3C(=O)c3ccc(O)cc3O)c(O)c1C2=O (stereo not given in full) — 6.6-fold lower, 1210 nM
- N#CC1=C(N)OC2=C(CCc3ccccc32)C1c1ccccc1Cl (stereo not given) — 2.1-fold lower, 3820 nM
- COc1c(N2CCN(C(=S)Nc3ccc(F)cc3)C(C)C2)c(F)cc2c(=O)c(C(=O)O)cn(C3CC3)c12 (stereo not given) — 2.4-fold lower, 3370 nM
- Cc1ccc(OCCn2c(NC(=O)c3ccco3)nc3ccccc32)cc1 — 2.2-fold lower, 3580 nM
- CN(C)c1ccc(O)c2c1CC1CC3[C@@H](N(C)C)C(=O)C(C(N)=O)=C(O)[C@]3(O)C(=O)C1=C2O (stereo not given in full) — 83-fold lower, 95 nM
- COc1ccc(-c2oc3ccc(N4CCOCC4)cc3c2C#CC2(O)CCCCC2)cc1 — 3.8-fold lower, 2110 nM
- Cc1cc(C(=O)OC(C(=O)Nc2cccc(C(F)(F)F)c2)c2ccccc2)c(C)o1 (stereo not given) — within 1.5-fold, 10100 nM
- CC(C)=CCCC1(C)C=Cc2c(ccc3c2[nH]c2cc(O)c(C)cc23)O1 (stereo not given) — 2.6-fold lower, 3040 nM
- Cc1ncc(CO)c(/C=N/NC(=S)Nc2ccc(Cl)c(Cl)c2)c1O — within 1.5-fold, 5900 nM
- CCOc1ccc(-c2nnc3ccc(SC(C)C)nn23)cc1 — 3.7-fold lower, 2150 nM
- Oc1cccc2ccc(/C=C/c3c(F)cccc3Cl)nc12 — 18-fold lower, 430 nM
- COc1ccc(C(=O)NC(=S)NNC(=O)c2ccccc2O)cc1 — 5.5-fold lower, 1440 nM
- O=c1c2cc(-c3ccccc3)sc2nc2n1CCC2 — within 1.5-fold, 7670 nM
- O=C1NC(=Nc2ccc(Cl)cc2)SC1Cc1cccc(Cl)c1Cl (stereo not given) — within 1.5-fold, 6950 nM
- Cc1ccc(C(=O)N/N=C/c2ccc([N+](=O)[O-])s2)cc1 — 1.8-fold higher, 14000 nM
- Cc1cccc(C)c1OCC(=O)NNC(=S)NC(=O)C1CC1 — 26-fold lower, 304 nM
- CC(C)C1Nc2c(O)cc(Cl)c([N+](=O)[O-])c2C2C=CCC21 (stereo not given) — 2.6-fold lower, 3100 nM
- O=c1c2ccccc2oc2cc(-c3ccc4[nH]ccc4c3)ccc12 — 1.6-fold lower, 4850 nM
- COc1ccc(CNC(=O)Cc2csc(NC(=O)Nc3ccccc3OC)n2)cc1 — 1.9-fold higher, 15000 nM
- O=C(COc1ccc(-c2ccccc2)cc1)N/N=C/c1cc(O)ccc1Br — 3.5-fold lower, 2270 nM
- O=C(Nc1ccccc1C(=O)Nc1nnc(C(F)(F)F)s1)c1ccccc1Cl — 5.9-fold lower, 1340 nM
- COc1cccc(/C=N/Nc2nc(Nc3ccc([N+](=O)[O-])cc3)nc(N3CCCC3)n2)c1O — 6.7-fold lower, 1180 nM
- O=C(O)c1ccc(-c2nc(-c3ccc(Cl)c(Cl)c3)cs2)cc1 — 2.1-fold lower, 3820 nM
- CC1CCN(C(=O)c2ccc3c(c2)NC(=O)/C(=C/c2ccccc2)S3)CC1 — 3-fold lower, 2660 nM
- CC(C)NC(=S)NC(c1ccccc1)(c1ccccc1)c1ccccc1 — 1.6-fold lower, 4870 nM
- C/C(=N\NC(=O)c1ccc(Cl)cc1)c1ccccn1 — 5.4-fold lower, 1480 nM
- Cc1ccc(C(=O)OC2OC(=O)C(Cl)=C2N2CCOCC2)cc1 (stereo not given) — 9-fold lower, 884 nM
- COc1cc(/C=N/Nc2nc(Nc3ccc(C)cc3)nc(-n3nc(C)cc3C)n2)cc(OC)c1OC — 46-fold lower, 171 nM
- O=C(Oc1ccc(NC2=C(Cl)C(=O)c3ccccc3C2=O)cc1)c1ccc([N+](=O)[O-])cc1 — within 1.5-fold, 7480 nM
- Cc1ccc(-c2cc(C(=O)N3CCN(c4ccccc4O)CC3)c3ccccc3n2)cc1 — within 1.5-fold, 8840 nM
- COc1cc(C(=O)NNC(=S)NC(=O)c2ccc3c(c2)OCO3)cc(OC)c1OC — 4.9-fold lower, 1630 nM
- CN1CCN(C(c2ccc(C(F)(F)F)cc2)c2ccc3cccnc3c2O)CC1 (stereo not given) — 2.6-fold lower, 3020 nM
- CCc1cccc2c(C(=O)COC(=O)c3ccc([N+](=O)[O-])s3)c[nH]c12 — 11-fold lower, 735 nM

For `CCOc1cccc(N(C(=O)c2ccco2)C(C(=O)NC2CCCC2)c2cccnc2)c1` (stereo not given), the EC50 was > 15000 nM (inactive).
With `CCCCc1nc2cc(C(=O)N3CCC(OCCOC)CC3)ccc2o1` the EC50 was > 15000 nM (inactive).
With `O=C(CSc1nnc(NC(=O)c2ccccc2)s1)NCC1CCCO1` (stereo not given) the EC50 was > 15000 nM (inactive).
In the case of `COC(=O)CSc1nnc(-c2cnccn2)n1C`, the EC50 is reported as > 15000 nM (inactive).
With `CC12CCC(C(=O)NNC(=O)c3ccccc3)(OC1=O)C2(C)C` (stereo not given) the EC50 was > 15000 nM (inactive).
